# Test results reported in US20230174530A1, “N-(PHENYLAMINOCARBONYL) TETRAHYDRO-ISOQUINOLINES AND RELATED COMPOUNDS AS MODULATORS OF GPR65” (PATHIOS THERAPEUTICS LIMITED, priority 2020, published 2023).
# pIC50: −log10 of the molar value.
# Target: T1, human recombinant GPR65 (Homo sapiens, UniProt Q8IYL9)
# T1 construct: host or cells: 1321N1 human astrocytoma cells (1321N1-hrGPR65)
# Assay: Human GPR65 cAMP HTRF antagonist assay
# Type: cell-based
# Conditions: 1321N1-hrGPR65 cells stimulated at assay pH 7.2; suppression of cAMP rise; read-out: hGPR65 IC50
# Experimental: Human GPR65 Cyclic Adenosine Monophosphate (cAMP) Homogeneous Time Resolved Fluorescence (HTRF) Antagonist Assay Procedure
# IC50 data was obtained by the following procedure:
# 1321N1 human astrocytoma cells stably expressing human recombinant GPR65 (1321N1-hrGPR65 cells, EuroscreenFast) were cultured according to the vendor's instructions.
# Compounds were tested for their ability to antagonise GPR65, through measuring the concentration of cytoplasmic cAMP following treatment of the cells at a pH of 7.2 to activate GPR65 signalling and addition of the compound to be tested. The extent to which the expected rise in cAMP concentration upon GPR65 activation was suppressed by the added compound is indicative of its potency. The assay was carried out according to EuroscreenFast assay methodology as follows.
# On the day of the assay, test compounds were added to 384-well, low volume, white microtiter plates by acoustic dispensing. KRH buffer (5 mM KCl, 1.25 mM MgSO4, 124 mM NaCl, 25 mM HEPES, 13.3 mM Glucose, 1.25 mM KH2PO4 and 1.45 mM CaCl2) was adjusted to pH 6.5, pH 7.6 and pH 8.4 by adding NaOH. 1321N1-hGPR65 cells were rapidly thawed and diluted in KRH, pH 7.6 prior to centrifugation at 300×g for 5 min and resuspension in assay buffer (KRH, pH 7.6, supplemented with 1 mM 3-isobutyl-1-methylxanthine (IBMX) and 200 μM ethylenediaminetetraacetic acid (EDTA)). Cells were added to assay plates at a density of 2,000 cells per well in a volume of 5 μl. Assay plates were briefly centrifuged at 100×g and then incubated at room temperature for 30 min. Cells were stimulated by the addition of 5 μL KRH, pH 6.5, to achieve an assay pH of 7.2, while control wells received 5 μl KRH, pH 8.4 to achieve an assay pH of 7.9. Assay plates were briefly centrifuged at 100×g and then incubated at room temperature for 30 min.
# Accumulation of cAMP was detected by cAMP HTRF kit (Cisbio). d2-labeled cAMP and cryptate-labeled anti-cAMP antibody in Lysis and Detection Buffer (Cisbio) were added to assay plates, and the plates were incubated at room temperature for 1 h. HTRF measurements were performed using a Pherastar FSX instrument. Acceptor and donor emission signals were measured at 665 nm and 620 nm, respectively, and HTRF ratios were calculated as signal665 nm/signal620 nm×10^4. Data were normalised to high and low control values and fitted with 4-parameter logistic regression to determine hGPR65 IC50 values for the test compounds, which are shown in Table 1.
# T1 sequence (Q8IYL9 whole entry): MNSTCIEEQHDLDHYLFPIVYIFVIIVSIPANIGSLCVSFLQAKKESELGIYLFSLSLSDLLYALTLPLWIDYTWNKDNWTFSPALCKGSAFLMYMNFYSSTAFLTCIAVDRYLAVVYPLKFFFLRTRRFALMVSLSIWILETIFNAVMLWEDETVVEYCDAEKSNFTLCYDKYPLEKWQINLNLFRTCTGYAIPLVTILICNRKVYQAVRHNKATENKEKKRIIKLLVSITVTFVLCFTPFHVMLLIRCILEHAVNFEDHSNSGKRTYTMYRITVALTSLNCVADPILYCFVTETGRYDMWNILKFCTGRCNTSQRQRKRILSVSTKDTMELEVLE
row,SMILES,pIC50
1,"O=C(Nc1ccc(C(F)(F)F)c(Cl)c1)N1CCc2cnc(Cl)cc2C1 [Compound 90, 7-Chloro-N-(3-chloro-4-(trifluoromethyl)phenyl)-3,4-dihydro-2,6-naphthyridine-2(1H)-carboxamide]",5.30 to 6.30
2,"COc1cc2c(cn1)CCN(C(=O)Nc1ccc(C(F)(F)F)c(Cl)c1)C2 [Compound 107, N-(3-Chloro-4-(trifluoromethyl)phenyl)-7-methoxy-3,4-dihydro-2,6-naphthyridine-2(1H)-carboxamide]",< 5.30
3,"Cc1ccc2c(c1)CN(C(=O)Nc1ccc(C(F)(F)F)c(Cl)c1)CC2 [Compound 35, N-(3-Chloro-4-(trifluoromethyl)phenyl)-7-methyl-3,4-dihydroisoquinoline-2(1H)-carboxamide]",5.30 to 6.30
4,"O=C(Nc1ccc(C(F)(F)F)c(Cl)c1)N1CCc2ccccc2C1 [Compound 10, N-(3-Chloro-4-(trifluoromethyl)phenyl)-3,4-dihydroisoquinoline-2(1H)-carboxamide]",5.30 to 6.30
5,"COc1cccc2c1CCN(C(=O)Nc1ccc(Cl)c(C(F)(F)F)c1)C2 [Compound 133, N-(4-Chloro-3-(trifluoromethyl)phenyl)-5-methoxy-3,4-dihydroisoquinoline-2(1H)-carboxamide]",5.30 to 6.30
6,"N#Cc1ccc2c(c1)CN(C(=O)Nc1ccc(Cl)c(Cl)c1)CC2 [Compound 49, 7-Cyano-N-(3,4-dichlorophenyl)-3,4-dihydroisoquinoline-2(1H)-carboxamide]",5.30 to 6.30
7,"O=C(Nc1ccc(C(F)(F)F)c(Cl)c1)N1CCc2c(cccc2C(F)(F)F)C1 [Compound 70, N-(3-Chloro-4-(trifluoromethyl)phenyl)-5-(trifluoromethyl)-3,4-dihydroisoquinoline-2(1H)-carboxamide]",< 5.30
8,"O=C(Nc1ccc(C(F)(F)F)c(Cl)c1)N1CCc2c(Cl)cccc2C1 [Compound 57, 5-Chloro-N-(3-chloro-4-(trifluoromethyl)phenyl)-3,4-dihydroisoquinoline-2(1H)-carboxamide]",5.30 to 6.30
9,"O=C(Nc1ccc(Cl)c(Cl)c1)N1CCc2ncccc2C1 [Compound 20, N-(3,4-Dichlorophenyl)-7,8-dihydro-1,6-naphthyridine-6(5H)-carboxamide]",< 5.30
10,"O=C(Nc1ccc(Cl)c(Cl)c1)N1CCc2ccccc2C1 [Compound 81, N-(3,4-Dichlorophenyl)-3,4-dihydroisoquinoline-2(1H)-carboxamide]",5.30 to 6.30
11,"O=C(Nc1ccc(C(F)(F)F)c(Cl)c1)N1CCc2ccc(Cl)cc2C1 [Compound 30, 7-Chloro-N-(3-chloro-4-(trifluoromethyl)phenyl)-3,4-dihydroisoquinoline-2(1H)-carboxamide]",> 6.30
12,"O=C(Nc1ccc(Cl)c(Cl)c1)N1CCc2ccc(F)cc2C1 [Compound 31, N-(3,4-Dichlorophenyl)-7-fluoro-3,4-dihydroisoquinoline-2(1H)-carboxamide]",> 6.30
13,"O=C(Nc1ccc(Cl)c(Cl)c1)N1CCc2ccc(O)cc2C1 [Compound 96, N-(3,4-Dichlorophenyl)-7-hydroxy-3,4-dihydroisoquinoline-2(1H)-carboxamide]",5.30 to 6.30
14,"O=C(Nc1ccc(C(F)(F)F)c(Cl)c1)N1CCc2cncnc2C1 [Compound 9, N-(3-Chloro-4-(trifluoromethyl)phenyl)-5,8-dihydropyrido[3,4-d]pyrimidine-7(6H)-carboxamide]",< 5.30
15,"O=C(Nc1ccc(Cl)c(Cl)c1)N1CCc2cc(F)ccc2C1 [Compound 42, N-(3,4-Dichlorophenyl)-6-fluoro-3,4-dihydroisoquinoline-2(1H)-carboxamide]",> 6.30

# Now from value to compound:
row,pIC50,SMILES
1,5.30 to 6.30,"COc1cccc2c1CCN(C(=O)Nc1ccc(C(F)(F)F)c(Cl)c1)C2 [Compound 134, N-(3-Chloro-4-(trifluoromethyl)phenyl)-5-methoxy-3,4-dihydroisoquinoline-2(1H)-carboxamide]"
2,< 5.30,"O=C(Nc1ccc(Cl)c(C(F)(F)F)c1)N1CCc2ncccc2C1 [Compound 21, N-(4-Chloro-3-(trifluoromethyl)phenyl)-7,8-dihydro-1,6-naphthyridine-6(5H)-carboxamide]"
3,< 5.30,"O=C(Nc1cc(Cl)c(Cl)cc1C(F)(F)F)N1CCc2cc(=O)[nH]cc2C1 [Compound 130, N-(4,5-Dichloro-2-(trifluoromethyl)phenyl)-6-oxo-3,4,6,7-tetrahydro-2,7-naphthyridine-2(1H)-carboxamide]"
4,5.30 to 6.30,"O=C(Nc1ccc(Cl)c(Cl)c1)N1CCc2oncc2C1 [Compound 80, N-(3,4-Dichlorophenyl)-6,7-dihydroisoxazolo[4,5-c]pyridine-5(4H)-carboxamide]"
5,5.30 to 6.30,"O=C(Nc1ccc(Cl)c(Cl)c1F)N1CCc2cc(=O)[nH]cc2C1 [Compound 118, N-(3,4-Dichloro-2-fluorophenyl)-6-oxo-3,4,6,7-tetrahydro-2,7-naphthyridine-2(1H)-carboxamide]"
6,5.30 to 6.30,"COc1ccc2c(c1)CN(C(=O)Nc1ccc(C(F)(F)F)c(Cl)c1)CC2 [Compound 63, N-(3-Chloro-4-(trifluoromethyl)phenyl)-7-methoxy-3,4-dihydroisoquinoline-2(1H)-carboxamide]"
7,5.30 to 6.30,"O=C(Nc1ccc(C(F)(F)F)c(Cl)c1)N1CCc2oncc2C1 [Compound 26, N-(3-Chloro-4-(trifluoromethyl)phenyl)-6,7-dihydroisoxazolo[4,5-c]pyridine-5(4H)-carboxamide]"
8,< 5.30,"CS(=O)(=O)c1ccc2c(c1)CCN(C(=O)Nc1ccc(C(F)(F)F)c(Cl)c1)C2 [Compound 124, N-(3-Chloro-4-(trifluoromethyl)phenyl)-6-(methylsulfonyl)-3,4-dihydroisoquinoline-2(1H)-carboxamide]"
9,< 5.30,"O=C(Nc1ccc(Cl)c(Cl)c1)N1CCc2cc3ncnn3cc2C1 [Compound 111, N-(3,4-Dichlorophenyl)-8,9-dihydro-[1,2,4]triazolo[1,5-b][2,7]naphthyridine-7(6H)-carboxamide]"
10,5.30 to 6.30,"O=C(Nc1ccc(Cl)c(C(F)(F)F)c1)N1CCc2cncnc2C1 [Compound 7, N-(4-Chloro-3-(trifluoromethyl)phenyl)-5,8-dihydropyrido[3,4-d]pyrimidine-7(6H)-carboxamide]"
11,> 6.30,"O=C(Nc1ccc(Cl)c(Cl)c1)N1CCc2cc3cncn3cc2C1 [Compound 113, N-(3,4-Dichlorophenyl)-8,9-dihydroimidazo[1,5-b][2,7]naphthyridine-7(6H)-carboxamide]"
12,> 6.30,"O=C(Nc1ccc(Cl)c(Cl)c1)N1CCc2nc(F)ccc2C1 [Compound 123, N-(3,4-Dichlorophenyl)-2-fluoro-7,8-dihydro-1,6-naphthyridine-6(5H)-carboxamide]"
13,< 5.30,"O=C(Nc1ccc(Cl)c(Cl)c1)N1CCc2cccnc2C1 [Compound 18, N-(3,4-Dichlorophenyl)-5,8-dihydro-1,7-naphthyridine-7(6H)-carboxamide]"
14,< 5.30,"COc1ccc2c(c1)CCN(C(=O)Nc1ccc(Cl)c(Cl)c1)C2 [Compound 65, N-(3,4-Dichlorophenyl)-6-methoxy-3,4-dihydroisoquinoline-2(1H)-carboxamide]"
15,5.30 to 6.30,"Cc1cccc2c1CCN(C(=O)Nc1ccc(C(F)(F)F)c(Cl)c1)C2 [Compound 60, N-(3-Chloro-4-(trifluoromethyl)phenyl)-5-methyl-3,4-dihydroisoquinoline-2(1H)-carboxamide]"
